Data: US20220055989A1, “CONDENSED PYRROLES AS NOVEL BROMODOMAIN INHIBITORS” (ALBERT LUDWING UNIVERSITÄT FREIBURG, priority 2018, published 2022)

Columns and labels:
ATAD2B [1] = molecular target: T1, ATAD2B (Homo sapiens, UniProt Q9ULI0); experiment: Bromodomain assay % Ctrl determination ATAD2B; conditions: lower numbers indicate a stronger binding
T1 construct: T7 phage strains displaying bromodomains were grown in parallel; made in house; host or cells: T7 phage grown in an E. coli host derived from the BL21 strain
T1 sequence (Q9ULI0 951-1066 limits assumed): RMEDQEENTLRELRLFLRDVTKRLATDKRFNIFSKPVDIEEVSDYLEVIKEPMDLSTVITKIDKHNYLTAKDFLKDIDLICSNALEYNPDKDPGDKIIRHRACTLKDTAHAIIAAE
Method: (§1) Compounds that bind the bromodomain prevent its binding to the immobilized ligand thus reducing the amount of protein captured. […] Hits are identified by measuring the amount of bromodomain captured in test versus control samples. Bromodomain assays for % Ctrl determination: T7 phage strains displaying bromodomains were grown in parallel in 24-well blocks in an E. coli host derived from the BL21 strain. E. coli were grown to log-phase and infected with T7 phage from a frozen stock (multiplicity of infection=0.4) and incubated with shaking at 32° C. until lysis (90-150 minutes). The lysates were centrifuged (5,000×g) and filtered (0.2 μm) to remove cell debris. […] The liganded beads were blocked with excess biotin and washed with blocking buffer (SeaBlock (Pierce), 1% BSA, 0.05% Tween 20, 1 mM DTT) to remove unbound ligand and to reduce non-specific phage binding. […] Test compounds were prepared as 1000× stocks in 100% DMSO and subsequently diluted 1:25 in monoethylene glycol (MEG). The compounds were then diluted directly into the assays such that the final concentrations of DMSO and MEG were 0.1% and 2.4%, respectively. All reactions were performed in polypropylene 384-well plates in a final volume of 0.02 ml. […] The bromodomain concentration in the eluates was measured by qPCR. […]

BRDT(1) = molecular target: T2, BRDT(1) (Homo sapiens, UniProt Q58F21); experiment: Bromodomain assay % Ctrl determination BRDT(1); conditions: lower numbers indicate a stronger binding
T2 construct: T7 phage strains displaying bromodomains were grown; host or cells: T7 phage in E. coli derived from BL21
Method: as §1

BRPF1 = molecular target: T3, BRPF1 (Homo sapiens, UniProt P55201); experiment: Bromodomain assay % Ctrl determination BRPF1; conditions: lower numbers indicate a stronger binding
T3 construct: T7 phage strains displaying bromodomains were grown; host or cells: T7 phage in E. coli derived from BL21
T3 sequence (P55201 628-732 limits assumed): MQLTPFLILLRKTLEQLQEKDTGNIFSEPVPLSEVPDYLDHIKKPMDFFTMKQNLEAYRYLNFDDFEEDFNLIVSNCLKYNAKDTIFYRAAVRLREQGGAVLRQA
Method: as §1

PCAF = molecular target: T4, PCAF (Homo sapiens, UniProt Q92831); experiment: Bromodomain assay % Ctrl determination PCAF; conditions: lower numbers indicate a stronger binding
T4 construct: T7 phage strains displaying bromodomains were grown in parallel; host or cells: T7 phage grown in E. coli host derived from BL21
T4 sequence (Q92831 723-827 limits assumed): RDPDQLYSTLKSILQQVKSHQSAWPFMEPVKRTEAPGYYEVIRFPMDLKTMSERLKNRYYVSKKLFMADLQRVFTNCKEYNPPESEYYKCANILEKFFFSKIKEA
Method: as §1

TRIM24(PHD, Bromo) [2] = molecular target: T5, TRIM24(PHD, Bromo) (Homo sapiens, UniProt O15164); experiment: Bromodomain assay % Ctrl determination TRIM24(PHD, Bromo); conditions: lower numbers indicate a stronger binding
T5 construct: T7 phage strains displaying bromodomains were grown in parallel; host or cells: T7 phage grown in E. coli host derived from BL21
T5 sequence (O15164 824-1006 limits assumed): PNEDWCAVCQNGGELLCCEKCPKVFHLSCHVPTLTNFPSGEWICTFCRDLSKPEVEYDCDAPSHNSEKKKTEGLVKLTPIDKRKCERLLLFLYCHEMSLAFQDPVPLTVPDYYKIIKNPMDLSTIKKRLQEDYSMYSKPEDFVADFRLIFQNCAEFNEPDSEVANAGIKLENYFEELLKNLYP
Method: as §1

TRIM33(PHD, Bromo) = experiment: Bromodomain assay % Ctrl determination TRIM33(PHD, Bromo); conditions: lower numbers indicate a stronger binding
Method: as §1

ATAD2A = molecular target: T6, ATAD2A (Homo sapiens, UniProt Q6PL18); experiment: BROMOscan Kd determination ATAD2A; type: binding
T6 construct: T7 phage strains displaying bromodomains were grown in parallel; made in house; host or cells: T7 phage grown in an E. coli host derived from the BL21 strain
T6 sequence (Q6PL18 980-1092 limits assumed): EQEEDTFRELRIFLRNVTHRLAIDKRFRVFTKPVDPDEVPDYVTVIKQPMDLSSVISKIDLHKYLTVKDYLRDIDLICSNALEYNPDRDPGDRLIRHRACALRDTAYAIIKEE
Method: (§2) Bromodomain profiling was carried out on the basis of BROMOscan™. This platform accounted for the indirect determination of the dissociation constants between 19 bromodomains and the compound of formula (13), by binding competition against a reference immobilized ligand. Compounds that bind the bromodomain prevent its binding to the immobilized ligand thus reducing the amount of protein captured. […] Hits are identified by measuring the amount of bromodomain captured in test versus control samples. Bromodomain assays for Kd determination: T7 phage strains displaying bromodomains were grown in parallel in 24-well blocks in an E. coli host derived from the BL21 strain. E. coli were grown to log-phase and infected with T7 phage from a frozen stock (multiplicity of infection=0.4) and incubated with shaking at 32° C. until lysis (90-150 minutes). The lysates were centrifuged (5,000×g) and filtered (0.2 μm) to remove cell debris. […] Kds were determined using an 11-point 3-fold compound dilution series with one DMSO control point. […] The bromodomain concentration in the eluates was measured by qPCR. […] Most Kds were determined using a compound top concentration=10,000 nM. […] Binding Constants (Kds): Binding constants (Kds) were calculated with a standard dose-response curve using the Hill equation: The Hill Slope was set to −1. […]

ATAD2B [3] = molecular target: T1, ATAD2B; experiment: BROMOscan Kd determination ATAD2B; type: binding
Method: as §2

BRD8(2) = molecular target: T7, BRD8(2) (Homo sapiens, UniProt Q9H0E9); experiment: BROMOscan Kd determination BRD8(2); type: binding
T7 construct: T7 phage strains displaying bromodomains were grown; host or cells: T7 phage in E. coli derived from BL21
T7 sequence (Q9H0E9 1099-1207 limits assumed): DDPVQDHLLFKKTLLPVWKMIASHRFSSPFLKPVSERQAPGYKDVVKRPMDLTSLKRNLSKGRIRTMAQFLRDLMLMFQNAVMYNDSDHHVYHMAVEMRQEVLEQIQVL
Method: as §2

FALZ = molecular target: T8, FALZ (Homo sapiens, UniProt Q12830); experiment: BROMOscan Kd determination FALZ; type: binding
T8 construct: T7 phage strains displaying bromodomains were grown in parallel; host or cells: T7 phage grown in E. coli host derived from BL21
Method: as §2

GCN5L2 = molecular target: T9, GCN5L2 (Homo sapiens, UniProt Q92830); experiment: BROMOscan Kd determination GCN5L2; type: binding
T9 construct: T7 phage strains displaying bromodomains were grown in parallel; host or cells: T7 phage grown in E. coli host derived from BL21
T9 sequence (Q92830 728-832 limits assumed): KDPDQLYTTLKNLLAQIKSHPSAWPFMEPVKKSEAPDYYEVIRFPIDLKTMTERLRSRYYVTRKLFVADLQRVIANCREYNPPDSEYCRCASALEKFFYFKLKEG
Method: as §2

SMARCA2 = molecular target: T10, SMARCA2 (Homo sapiens, UniProt P51531); experiment: BROMOscan Kd determination SMARCA2; type: binding
T10 construct: T7 phage strains displaying bromodomains were grown in parallel; host or cells: T7 phage grown in E. coli host derived from BL21
T10 sequence (P51531 1378-1506 limits assumed): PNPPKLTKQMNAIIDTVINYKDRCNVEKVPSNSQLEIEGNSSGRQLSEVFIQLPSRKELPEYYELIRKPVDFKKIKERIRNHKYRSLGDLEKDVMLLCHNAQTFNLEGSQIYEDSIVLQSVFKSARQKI
Method: as §2

TAF1L(2) = molecular target: T11, TAF1L(2) (Homo sapiens, UniProt Q8IZX4); experiment: BROMOscan Kd determination TAF1L(2); type: binding
T11 construct: FALZ, PBRM1-BD2, BPRM1-BDS, TAF1-BD2, TAF1L-BD2; host or cells: T7 phage grown in E. coli host derived from BL21
T11 sequence (Q8IZX4 1517-1626 limits assumed): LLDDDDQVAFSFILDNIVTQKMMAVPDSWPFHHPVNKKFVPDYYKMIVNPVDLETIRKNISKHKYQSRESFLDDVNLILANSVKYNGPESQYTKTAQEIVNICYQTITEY
Method: as §2

TRIM24 (Bromo.) = molecular target: T12, TRIM24 (Bromo.) (Homo sapiens, UniProt O15164); experiment: BROMOscan Kd determination TRIM24 (Bromo.); type: binding
T12 construct: T7 phage strains displaying bromodomains were grown in parallel; host or cells: T7 phage grown in E. coli host derived from BL21
T12 sequence (O15164 899-1004 limits assumed): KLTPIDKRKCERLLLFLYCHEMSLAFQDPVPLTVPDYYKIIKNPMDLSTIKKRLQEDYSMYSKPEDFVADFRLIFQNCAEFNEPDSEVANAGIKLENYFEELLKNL
Method: as §2

TRIM24(PHD, Bromo) [4] = molecular target: T5, TRIM24(PHD, Bromo); experiment: BROMOscan Kd determination TRIM24(PHD, Bromo.); type: binding
Method: as §2

TRIM33(PHD, Bromo.) = molecular target: T13, TRIM33(PHD, Bromo.) (Homo sapiens, UniProt Q9UPN9); experiment: BROMOscan Kd determination TRIM33(PHD, Bromo.); type: binding
T13 construct: TRIM33(PHD, Bromo.); the phage DNA is read by qPCR
T13 sequence (Q9UPN9 whole entry): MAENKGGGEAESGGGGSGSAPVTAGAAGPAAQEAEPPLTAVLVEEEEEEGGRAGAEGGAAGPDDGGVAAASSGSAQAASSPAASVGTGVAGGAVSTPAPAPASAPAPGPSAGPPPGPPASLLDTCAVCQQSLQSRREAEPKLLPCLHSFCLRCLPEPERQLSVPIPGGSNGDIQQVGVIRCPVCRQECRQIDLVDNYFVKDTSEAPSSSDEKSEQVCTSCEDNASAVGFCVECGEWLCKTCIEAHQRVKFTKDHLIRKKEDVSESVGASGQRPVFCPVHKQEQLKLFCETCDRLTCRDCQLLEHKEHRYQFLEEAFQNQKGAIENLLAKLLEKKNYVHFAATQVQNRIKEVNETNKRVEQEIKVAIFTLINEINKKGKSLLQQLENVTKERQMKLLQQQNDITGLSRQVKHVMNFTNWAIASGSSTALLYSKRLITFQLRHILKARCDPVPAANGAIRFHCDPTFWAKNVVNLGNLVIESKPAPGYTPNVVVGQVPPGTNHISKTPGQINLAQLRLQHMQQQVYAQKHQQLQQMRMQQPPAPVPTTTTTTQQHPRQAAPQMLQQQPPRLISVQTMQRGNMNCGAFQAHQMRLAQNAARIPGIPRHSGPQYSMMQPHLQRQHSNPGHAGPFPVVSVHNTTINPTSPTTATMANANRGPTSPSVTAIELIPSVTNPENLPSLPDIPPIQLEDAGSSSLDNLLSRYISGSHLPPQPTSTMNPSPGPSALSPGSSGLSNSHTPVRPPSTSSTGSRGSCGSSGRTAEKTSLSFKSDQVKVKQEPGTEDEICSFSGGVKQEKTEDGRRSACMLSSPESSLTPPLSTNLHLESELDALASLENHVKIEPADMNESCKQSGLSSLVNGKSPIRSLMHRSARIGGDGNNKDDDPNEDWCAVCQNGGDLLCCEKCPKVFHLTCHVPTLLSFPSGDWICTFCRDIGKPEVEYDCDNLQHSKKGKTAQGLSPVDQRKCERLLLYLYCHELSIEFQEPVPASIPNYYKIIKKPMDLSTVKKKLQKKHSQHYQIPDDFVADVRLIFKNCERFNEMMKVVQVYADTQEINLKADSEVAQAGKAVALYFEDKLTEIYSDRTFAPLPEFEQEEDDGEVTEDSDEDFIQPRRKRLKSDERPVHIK
Method: as §2

COc1ccc(S(=O)(=O)N2CCOCC2)cc1NC(=O)c1[nH]c(C)c2c1CCCCC2=O [Compound 13, N-(2-methoxy-5-(morpholinosulfonyl)phenyl)-3-methyl-4-oxo-2,4,5,6,7,8-hexahydrocyclohepta[c]pyrrole-1-carboxamide]
% Ctrl @ 10 000 nM ATAD2B (ATAD2B [1]): 97 % Ctrl
% Ctrl @ 10 000 nM BRDT(1) (BRDT(1)): 0 % Ctrl
% Ctrl @ 10 000 nM BRPF1 (BRPF1): 0.15 % Ctrl
% Ctrl @ 10 000 nM PCAF (PCAF): 20 % Ctrl
% Ctrl @ 10 000 nM TRIM24(PHD, Bromo) (TRIM24(PHD, Bromo) [2]): 82 % Ctrl
% Ctrl @ 10 000 nM TRIM33(PHD, Bromo) (TRIM33(PHD, Bromo)): 60 % Ctrl

Cc1[nH]c(-c2cc(N)ccc2Cl)c2c1C(=O)CCCC2 [Compound 23]
Kd (ATAD2A): > 10 µM
Kd (ATAD2B [3]): > 10 µM
Kd (BRD8(2)): > 10 µM
Kd (FALZ): 2.6 µM
Kd (GCN5L2): > 10 µM
Kd (SMARCA2): > 10 µM
Kd (TAF1L(2)): 6.8 µM
Kd (TRIM24 (Bromo.)): 1.4 µM
Kd (TRIM24(PHD, Bromo) [4]): 5.3 µM
Kd (TRIM33(PHD, Bromo.)): 7.7 µM
